Assay results published in patent US9776992B2, “1-oxo-1,2-dihydroisoquinolin-7-yl-(5-substituted-thiophen-2-yl)-sulfonamide compounds, formulations containing those compounds, and their use as AICARFT inhibitors in the treatment of cancers” (Eli Lilly and Company, priority 2014, dated 2017).

Target: AICARFT (Homo sapiens, UniProt P31939)
Assay: AICARFT enzyme assay (LC-MS of IMP and ZMP)
Format: biochemical
Set-up: made in house; host or cells: E. coli BL21(DE3)
Conditions: for IC50: Mean ± SEM, 25 μM ZMP, 100 μM 10-F-THFA, 3 nM ATIC enzyme, 1 hour at room temperature; for AICARFT inhibition in enzyme assay (in words): summary of Table 15
Protocol: Human AICARFT (NCBI accession number: NM_004044.6) cDNA is purchased from Openbiosystem Co. (Cat# MHS1011-62310, Clone ID: 4300570, accession: BC008879). The nucleotide sequence encoding full-length human AICARFT is inserted into pET21d (Novagen) vector with an N-terminal HIS tag. Bacterial BL21(DE3) (Novagen) is used as an expression host, and the induction of protein expression is carried out in 2×TY media with 1 mM IPTG at 18° C. overnight. Cell pellets are stored at −80° C. for subsequent protein purification. Protein purification is conducted at 4° C. Frozen cell pellets are lysed by incubation with stirring in 50 mL cold lysis buffer (50 mM Tris-HCl, pH 7.5, 300 mM NaCl, 10% glycerol, 0.1% Triton X-100, 0.5 mg/mL lysozyme, 5 U/mL benzonase, 1 mM DTT, 10 mM imidazole, and Roche complete EDTA-free protease inhibitor) per liter cell pellet and sonication. Cell lysates are clarified by centrifugation in a Bechman JA-18 rotor for 45 min at 16,500 rpm. The supernatant is incubated with Ni-NTA agarose resin (Qiagen) for 3 hours, followed by an initial batch wash with 10 resin volume of buffer A (50 mM Tris-HCl, pH 7.5, 300 mM NaCl, 10% glycerol, 1 mM DTT, 10 mM imidazole) containing 0.1% Triton X-100. The resin is then packed onto a column and washed with buffer A. The HIS-tagged AICARFT protein is eluted with 10-500 mM imidazole gradient in buffer A. Pooled HIS-AICARFT containing fractions are concentrated, loaded onto a HiLoad 26/600 Superdex 200 column (GE Healthcare Biosciences), and eluted with storage buffer (50 mM Tris-HCl, pH7.5, 150 mM NaCl, 1 mM DTT, 10% Glycerol). Fractions containing HIS-AICARFT are pooled and protein concentration determined by the Bradford assay using BSA as standard. The protein is aliquoted and stored at −80° C.
One of the substrates of the enzyme reaction, 10-formyltetrahydrofolate (10-F-THFA), has limited chemical stability and is therefore synthesized on the same day that the ATIC enzyme assay is performed. The general synthetic route is described in P. Rowe, Methods Enzymol., 18, 733-735, (1971) and J. Rabinowitz, Methods Enzymol., 6, 814-815, (1963). The first step in this synthesis is the conversion of folinic acid (Sigma CAS 1492-18-8) to 5,10-methenyltetrahydrofolic acid (5,10-M-THFA). This conversion typically takes place the day before the enzyme assay is performed, but can be performed up to 1 week earlier and stored at room temperature. To folinic acid (81.6 mg) is added β-mercaptoethanol (2 mL), and 37% concentrated HCl (80 μL), is added. This reaction incubates a minimum of 3 hours at room temperature, with occasional mixing. The color changes from clear to yellow visually, and the complete conversion of folinic acid to 5,10-M-THFA is monitored by spectral analysis using a quartz cuvette. The UV absorption will change from 266 nm to 356 nm during this step. […] On the morning of the assay, the 80 mM 5,10-M-THFA is diluted to 1.6 mM in 40 μM ammonium bicarbonate (made fresh that day). This reaction incubates 3-5 hours at room temperature. The color changes from yellow to clear visually, and the conversion of 5,10-M-THFA to 10-F-THFA is monitored by spectral analysis using a quartz cuvette. The UV absorption will change from 356 nm to 258 nm during this step. […] Test compounds are prepared in DMSO to make a 10 mM stock solution. The stock solution is serially diluted 3-fold in DMSO to obtain a ten-point dilution curve with final compound concentrations ranging from 100 μM to 5 nM. The final DMSO concentration in the assay is 5%.
To each well of a 384-well polypropylene assay plate (NUNC 264573), […] of DMSO (control wells) or compound in DMSO and 9 μL of 55.56 μM ZMP (Sigma-Aldrich CAS 3031-94-5) in water are added. Then, 10 μL of 200 μM 10-F-THFA and 6 nM ATIC enzyme in 40 μM ammonium bicarbonate is added. […] The assay is incubated for 1 hour at room temperature, after which 40 μL of ACN is added to stop the reaction.

AICARFT, sequence (P31939 whole entry): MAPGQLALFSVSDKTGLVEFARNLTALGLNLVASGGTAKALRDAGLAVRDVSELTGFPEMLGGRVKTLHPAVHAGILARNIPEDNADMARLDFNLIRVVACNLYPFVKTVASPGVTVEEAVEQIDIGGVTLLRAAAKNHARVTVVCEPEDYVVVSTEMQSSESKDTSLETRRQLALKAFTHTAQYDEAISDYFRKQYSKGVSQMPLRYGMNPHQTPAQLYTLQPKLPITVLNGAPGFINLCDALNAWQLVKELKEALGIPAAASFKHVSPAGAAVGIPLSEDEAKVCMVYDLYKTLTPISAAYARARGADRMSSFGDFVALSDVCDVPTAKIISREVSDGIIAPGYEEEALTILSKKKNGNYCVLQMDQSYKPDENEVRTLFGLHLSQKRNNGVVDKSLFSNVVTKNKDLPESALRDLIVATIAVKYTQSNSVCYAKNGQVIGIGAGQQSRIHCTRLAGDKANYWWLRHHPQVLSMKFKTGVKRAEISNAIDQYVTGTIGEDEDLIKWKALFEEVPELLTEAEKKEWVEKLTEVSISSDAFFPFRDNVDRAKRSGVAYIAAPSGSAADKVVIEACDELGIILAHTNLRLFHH

Row | SMILES | IC50 | AICARFT inhibition in enzyme assay (in words)
1 | O=c1[nH]ccc2cc(F)c(NS(=O)(=O)c3ccc(N4C[C@@H](O)[C@@H](F)C4)s3)cc12 (single isomer, unassigned) [Example 33] | 7.75 nM | inhibit AICARFT
2 | O=c1[nH]ccc2cc(F)c(NS(=O)(=O)c3ccc([C@@H]4CC[C@@H](O)C4)s3)cc12 (single isomer, unassigned) [Example 46] | 29.1 nM | inhibit AICARFT
3 | CCC1(C)CC(c2ccc(S(=O)(=O)Nc3cc4c(=O)[nH]ccc4cc3F)s2)=CNC1=O (single isomer, unassigned; isomer 1) [Example 84, 5-(5-Ethyl-5-methyl-6-oxo-1,4,5,6-tetrahydropyridin-3-yl)-N-(6-fluoro-1-oxo-1,2-dihydroisoquinolin-7-yl)thiophe2ne-2-sulfonamide, Isomer 1] | < 5.08 nM | inhibit AICARFT
4 | O=c1[nH]ccc2cc(F)c(NS(=O)(=O)c3ccc(N4CC[C@@H](O)C4)s3)cc12 [Example 1, N-(6-Fluoro-1-oxo-1,2-dihydroisoquinolin-7-yl)-5-[(3R)-3-hydroxypyrrolidin-1-yl]thiophene-2-sulfonamide] | – | inhibit AICARFT
5 | O=c1[nH]ccc2cc(F)c(NS(=O)(=O)c3ccc(N4C[C@@H](O)C(F)(F)C4)s3)cc12 [Example 41, 5-[(4R)-3,3-difluoro-4-hydroxypyrrolidin-1-yl]-N-(6-fluoro-1-oxo-1,2-dihydroisoquinolin-7-yl)thiophene-2-sulfonamide] | 10.6 nM | inhibit AICARFT
6 | CC1(C)CC(c2ccc(S(=O)(=O)Nc3cc4c(=O)[nH]ccc4cc3F)s2)=CNC1=O [Example 81, 5-(5,5-Dimethyl-6-oxo-1,4,5,6-tetrahydropyridin-3-yl)-N-(6-fluoro-1-oxo-1,2-dihydroisoquinolin-7-yl)thiophene-2-sulfonamide] | < 5.08 nM | inhibit AICARFT
